# Target: NaV1.3 (Homo sapiens, UniProt Q9NY46)
# Assay: VIPR optical membrane potential assay, NaV1.3 inhibition
# Assay type: cell-based
# Parameters: expressed in transfected cells; host or cells: HEK293
# Details: activity against NaV 1.3 channel
# Procedure: Antagonist properties of test compounds were assessed as follows. Cells expressing the NaV of interest were placed into microtiter plates. After an incubation period, the cells were stained with fluorescent dyes sensitive to the transmembrane potential. The test compounds were added to the microtiter plate. The cells were stimulated with either a chemical or electrical means to evoke a NaV dependent membrane potential change from unblocked channels, which was detected and measured with trans-membrane potential-sensitive dyes. Antagonists were detected as a decreased membrane potential response to the stimulus.
# The following is an example of how NaV1.3 inhibition activity is measured using the optical membrane potential method#2. Other subtypes are performed in an analogous mode in a cell line expressing the NaV of interest.
# HEK293 cells stably expressing NaV1.3 are plated into 96-well microtiter plates. After an appropriate incubation period, the cells are stained with the voltage sensitive dyes CC2-DMPE/DiSBAC2(3) as follows.
# 2× CC2-DMPE=20 μM CC2-DMPE: 10 mM CC2-DMPE is vortexed with an equivalent volume of 10% pluronic, followed by vortexing in required amount of HBSS containing 10 mM HEPES. Each cell plate will require 5 mL of 2× CC2-DMPE. 50 μL of 2× CC2-DMPE is to wells containing washed cells, resulting in a 10 μM final staining concentration. The cells are stained for 30 minutes in the dark at RT.
# 2× DISBAC2(3) with ABSC1=6 μM DISBAC2(3) and 1 mM ABSC1: The required amount of 10 mM DISBAC2(3) is added to a 50 ml conical tube and mixed with 1 μL 10% pluronic for each mL of solution to be made and vortexed together. Then HBSS/HEPES is added to make up 2× solution. Finally, the ABSC1 is added.
# The 2× DiSBAC2(3) solution can be used to solvate compound plates. Note that compound plates are made at 2× drug concentration. Wash stained plate again, leaving residual volume of 50 μL. Add 50 μL/well of the 2× DiSBAC2(3) w/ABSC1. Stain for 30 minutes in the dark at RT.
# The instrument comprises a microtiter plate handler, an optical system for exciting the coumarin dye while simultaneously recording the coumarin and oxonol emissions, a waveform generator, a current- or voltage-controlled amplifier, and a device for inserting electrodes in well. Under integrated computer control, this instrument passes user-programmed electrical stimulus protocols to cells within the wells of the microfilter plate.
# Insert or use electrodes into each well to be assayed.
# Use the current-controlled amplifier to deliver stimulation wave pulses for 3 s. Two seconds of pre-stimulus recording are performed to obtain the un-stimulated intensities. Five seconds of post-stimulation recording are performed to examine the relaxation to the resting state.
# Data are analyzed and reported as normalized ratios of background-subtracted emission intensities measured in the 460 nm and 580 nm channels. Background intensities are then subtracted from each assay channel. Background intensities are obtained by measuring the emission intensities during the same time periods from identically treated assay wells in which there are no cells. The response as a function of time is then reported as the ratios obtained using the following formula: […]
# The data is further reduced by calculating the initial (Ri) and final (Rf) ratios. These are the average ratio values during part or all of the pre-stimulation period, and during sample points during the stimulation period. The response to the stimulus ? =Rf/Ri is then calculated.
# Control responses are obtained by performing assays in the presence of a compound with the desired properties (positive control), such as tetracaine, and in the absence of pharmacological agents (negative control). Responses to the negative (N) and positive (P) controls are calculated as above. The compound antagonist activity A is defined as:
# [formula] where R is the ratio response of the test compound.
# Chain of NaV1.3 (Q9NY46 whole entry): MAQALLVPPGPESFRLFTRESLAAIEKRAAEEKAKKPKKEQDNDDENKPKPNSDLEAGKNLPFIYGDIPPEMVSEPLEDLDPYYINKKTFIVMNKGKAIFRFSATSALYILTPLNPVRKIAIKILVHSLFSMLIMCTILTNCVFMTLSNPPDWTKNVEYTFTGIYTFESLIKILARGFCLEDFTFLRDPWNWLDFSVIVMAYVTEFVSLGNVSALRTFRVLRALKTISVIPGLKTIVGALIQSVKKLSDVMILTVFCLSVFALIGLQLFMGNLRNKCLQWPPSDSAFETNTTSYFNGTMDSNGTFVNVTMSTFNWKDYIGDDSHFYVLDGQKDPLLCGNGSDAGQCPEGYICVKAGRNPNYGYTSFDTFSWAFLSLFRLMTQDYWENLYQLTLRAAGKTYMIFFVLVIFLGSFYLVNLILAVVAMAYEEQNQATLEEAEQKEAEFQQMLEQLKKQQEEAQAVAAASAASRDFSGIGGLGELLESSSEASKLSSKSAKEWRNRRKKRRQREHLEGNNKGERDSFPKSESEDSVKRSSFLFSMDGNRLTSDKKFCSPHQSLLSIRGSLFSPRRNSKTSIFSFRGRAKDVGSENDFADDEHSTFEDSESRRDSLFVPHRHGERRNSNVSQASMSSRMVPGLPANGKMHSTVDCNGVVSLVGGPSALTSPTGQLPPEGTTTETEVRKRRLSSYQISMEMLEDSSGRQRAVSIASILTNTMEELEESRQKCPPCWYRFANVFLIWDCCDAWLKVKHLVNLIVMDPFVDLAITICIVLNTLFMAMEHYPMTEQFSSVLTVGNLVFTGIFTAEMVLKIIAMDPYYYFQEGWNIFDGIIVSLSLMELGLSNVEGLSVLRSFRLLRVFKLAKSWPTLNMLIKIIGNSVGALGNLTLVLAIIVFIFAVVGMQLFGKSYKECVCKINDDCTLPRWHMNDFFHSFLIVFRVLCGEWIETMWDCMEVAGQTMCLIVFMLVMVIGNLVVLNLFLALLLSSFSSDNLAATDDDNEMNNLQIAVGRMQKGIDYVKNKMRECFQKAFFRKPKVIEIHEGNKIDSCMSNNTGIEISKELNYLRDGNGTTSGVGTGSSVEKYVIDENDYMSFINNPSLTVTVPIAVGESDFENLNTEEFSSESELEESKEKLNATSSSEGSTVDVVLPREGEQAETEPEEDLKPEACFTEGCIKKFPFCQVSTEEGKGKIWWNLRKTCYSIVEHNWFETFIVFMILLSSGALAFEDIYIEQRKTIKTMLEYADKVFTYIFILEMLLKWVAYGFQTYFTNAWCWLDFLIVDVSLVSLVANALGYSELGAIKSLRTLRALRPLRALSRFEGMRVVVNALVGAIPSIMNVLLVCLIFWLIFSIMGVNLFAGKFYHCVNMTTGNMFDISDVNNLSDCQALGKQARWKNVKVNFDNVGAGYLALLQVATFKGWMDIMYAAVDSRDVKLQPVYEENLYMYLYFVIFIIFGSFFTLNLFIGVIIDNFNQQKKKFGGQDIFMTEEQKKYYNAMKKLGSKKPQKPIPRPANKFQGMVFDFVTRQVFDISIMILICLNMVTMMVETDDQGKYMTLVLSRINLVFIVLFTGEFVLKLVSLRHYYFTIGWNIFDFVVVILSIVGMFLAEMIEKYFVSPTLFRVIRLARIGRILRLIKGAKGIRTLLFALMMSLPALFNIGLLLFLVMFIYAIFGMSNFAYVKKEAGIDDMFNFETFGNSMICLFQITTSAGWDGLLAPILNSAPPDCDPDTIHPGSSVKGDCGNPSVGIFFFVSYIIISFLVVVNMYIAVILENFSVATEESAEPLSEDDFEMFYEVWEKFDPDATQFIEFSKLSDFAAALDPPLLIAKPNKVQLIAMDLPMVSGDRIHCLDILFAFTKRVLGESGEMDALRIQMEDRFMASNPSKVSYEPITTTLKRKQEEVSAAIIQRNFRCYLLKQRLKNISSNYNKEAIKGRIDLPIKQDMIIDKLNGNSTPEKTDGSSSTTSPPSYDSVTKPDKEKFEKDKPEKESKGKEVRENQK
row,Compound,IC50
1,COc1cc(NCC(=O)N2CCc3cc(S(=O)(=O)Nc4nccs4)ccc32)cc(OC)c1 [Compound 108],> 5000 nM
2,O=C(c1ccccc1Cl)n1ccc2cc(S(=O)(=O)Nc3nccs3)ccc21 [Compound 103],2000 to 5000 nM
3,CC1CN(CC(=O)N2CCc3cc(S(=O)(=O)Nc4nccs4)ccc32)CC(C)O1 (stereo not shown) [Compound 85],> 5000 nM
4,CC(Oc1ccccc1)C(=O)N1CCCc2cc(S(=O)(=O)Nc3nccs3)ccc21 (stereo not shown) [Compound 39],> 5000 nM
5,C[C@@H](C(=O)N1Cc2ccc(S(=O)(=O)Nc3ccncn3)cc2C1)n1ccc2c(F)cccc21 [Compound 203],> 5000 nM
6,O=C(COc1ccc(OC(F)(F)F)cc1)N1CCc2ccc(S(=O)(=O)Nc3nccs3)cc2C1 [Compound 52],> 5000 nM
7,O=C(COc1ccc(F)c(Cl)c1)N1Cc2ccc(S(=O)(=O)Nc3ncns3)cc2C1 [Compound 200],< 2000 nM
8,CC(Oc1ccc(OC(F)(F)F)cc1)C(=O)N1CCc2ccc(S(=O)(=O)Nc3nccs3)cc2C1 (stereo not shown) [Compound 141],> 5000 nM
9,O=C(N1CCc2cc(S(=O)(=O)Nc3nccs3)ccc21)C1(c2ccccc2)CC1 [Compound 54],< 2000 nM
10,CC(C)(C)c1ccc(OCC(=O)N2CCCc3cc(S(=O)(=O)Nc4nccs4)ccc32)cc1 [Compound 206],< 2000 nM
11,O=C(ON1Cc2ccc(S(=O)(=O)Nc3nccs3)cc2C1)c1cccc(C(F)(F)F)c1 [Compound 59],< 2000 nM
12,O=C(COc1ccccc1)N1Cc2ccc(S(=O)(=O)Nc3nccs3)cc2C1 [Compound 199],< 2000 nM
13,O=C(COc1cccnc1)N1CCc2cc(S(=O)(=O)Nc3nccs3)ccc21 [Compound 129],> 5000 nM
14,O=C(CNc1ccccc1F)N1CCc2cc(S(=O)(=O)Nc3nccs3)ccc21 [Compound 144],< 2000 nM
15,O=C(c1cccc(Cl)c1)n1ccc2cc(S(=O)(=O)Nc3nccs3)ccc21 [Compound 86],< 2000 nM
16,O=C(c1ccc(Cl)c(Cl)c1)N1CCc2cc(S(=O)(=O)Nc3nccs3)ccc21 [Compound 90],< 2000 nM
17,O=C(CNc1ccc(F)c(Cl)c1)N1CCc2cc(S(=O)(=O)Nc3nccs3)ccc21 [Compound 48],2000 to 5000 nM
18,Cc1ccc(OCC(=O)N2CCc3cc(S(=O)(=O)Nc4nccs4)ccc32)cc1C [Compound 79],< 2000 nM
19,COc1ccc(OC(=O)N2CCc3cc(S(=O)(=O)Nc4nccs4)ccc32)cc1 [Compound 80],> 5000 nM
20,CC(Oc1cccc(Cl)c1)C(=O)N1CCc2ccc(S(=O)(=O)Nc3nccs3)cc2C1 (stereo not shown) [Compound 174],2000 to 5000 nM
21,O=C(Oc1cccc(C(F)(F)F)c1)N1CCc2cc(S(=O)(=O)Nc3nccs3)ccc21 [Compound 106],2000 to 5000 nM

row,Compound,IC50
1,O=C(c1cc(Cl)ccc1Cl)N1CCc2cc(S(=O)(=O)Nc3nccs3)ccc21 [Compound 109],< 2000 nM
2,Cc1ccc(F)c(C(=O)N2CCc3cc(S(=O)(=O)Nc4nccs4)ccc32)c1 [Compound 4],> 5000 nM
3,C[C@@H](C(=O)N1Cc2ccc(S(=O)(=O)Nc3ncns3)cc2C1)n1ccc2ccccc21 [Compound 164],< 2000 nM
4,O=C(CNC1CCC1)N1CCc2cc(S(=O)(=O)Nc3nccs3)ccc21 [Compound 161],> 5000 nM
5,O=C(CCn1ccc2cc(Cl)ccc21)N1Cc2ccc(S(=O)(=O)Nc3nccs3)cc2C1 [Compound 177],< 2000 nM
6,C[C@H](C(=O)N1CCc2cc(S(=O)(=O)Nc3nccs3)ccc21)n1ccc2ccccc21 [Compound 20],< 2000 nM
7,O=C(CN1CCC(F)(F)CC1)N1CCc2cc(S(=O)(=O)Nc3nccs3)ccc21 [Compound 153],> 5000 nM
8,CC(Oc1cccc(Cl)c1)C(=O)N1CCc2cc(S(=O)(=O)Nc3nccs3)ccc21 (stereo not shown) [Compound 91],< 2000 nM
9,Cc1ccc(C(=O)N2CCc3cc(S(=O)(=O)Nc4ncns4)ccc32)cc1Cl [Compound 179],< 2000 nM
10,CC(Oc1ccccc1)C(=O)N1CCc2ccc(S(=O)(=O)Nc3nccs3)cc2C1 (stereo not shown) [Compound 8],> 5000 nM
11,CC(Oc1cccc(Cl)c1)C(=O)N1Cc2ccc(S(=O)(=O)Nc3nccs3)cc2C1 (stereo not shown) [Compound 62],< 2000 nM
12,O=C(CNCc1ccncc1)N1CCc2cc(S(=O)(=O)Nc3nccs3)ccc21 [Compound 171],> 5000 nM
13,O=C(CNc1cccc(F)c1)N1CCc2cc(S(=O)(=O)Nc3nccs3)ccc21 [Compound 198],< 2000 nM
14,COc1ccccc1CC(=O)N1CCc2cc(S(=O)(=O)Nc3nccs3)ccc21 [Compound 10],2000 to 5000 nM
15,C[C@H](C(=O)N1Cc2ccc(S(=O)(=O)Nc3ccc(Cl)nn3)cc2C1)n1ccc2c(F)cccc21 [Compound 58],> 5000 nM
16,O=C(CCn1ccc2cc(Cl)ccc21)N1Cc2ccc(S(=O)(=O)Nc3ncns3)cc2C1 [Compound 127],< 2000 nM
17,Cc1ccnc(NS(=O)(=O)c2ccc3c(c2)CCN3C(=O)CCCOc2ccc(Cl)cc2Cl)n1 [Compound 208],> 5000 nM
18,O=C(COc1ccc(F)c(Cl)c1)N1CCc2cc(S(=O)(=O)Nc3ncns3)ccc21 [Compound 13],< 2000 nM
19,CC(C)(Oc1ccc(Cl)cc1)C(=O)N1CCc2cc(S(=O)(=O)Nc3nccs3)ccc21 [Compound 9],< 2000 nM
20,C[C@H](C(=O)N1Cc2ccc(S(=O)(=O)Nc3ncns3)cc2C1)n1ccc2ccccc21 [Compound 207],< 2000 nM
21,CCc1nnc(NS(=O)(=O)c2ccc3c(c2)CN(C(=O)[C@@H](C)N2CCCc4cc(Cl)ccc42)C3)s1 [Compound 135],2000 to 5000 nM

row,Compound,IC50
1,Cc1cccc(OCC(=O)N2CCc3cc(S(=O)(=O)Nc4nccs4)ccc32)c1 [Compound 1],< 2000 nM
2,COc1ccc(CCC(=O)N2CCc3cc(S(=O)(=O)Nc4nccs4)ccc32)cc1 [Compound 159],< 2000 nM
3,O=C(CCCOc1ccc(Cl)cc1Cl)N1CCCc2cc(S(=O)(=O)Nc3nccs3)ccc21 [Compound 180],< 2000 nM
4,O=C(COc1ccc(F)cc1)N1CCc2cc(S(=O)(=O)Nc3ncns3)ccc21 [Compound 42],< 2000 nM
5,O=C(CNCc1ccccc1)N1CCc2cc(S(=O)(=O)Nc3nccs3)ccc21 [Compound 24],> 5000 nM
6,Cc1ccc(CNCC(=O)N2CCc3cc(S(=O)(=O)Nc4nccs4)ccc32)cc1 [Compound 41],2000 to 5000 nM
7,O=C(COc1cccc(Cl)c1)N1Cc2ccc(S(=O)(=O)Nc3nccs3)cc2C1 [Compound 11],< 2000 nM
8,O=C(c1ccc(C(F)(F)F)cc1)N1CCCc2cc(S(=O)(=O)Nc3nccs3)ccc21 [Compound 132],2000 to 5000 nM
9,O=C(CN1CCC(F)(F)CC1)N1CCCc2cc(S(=O)(=O)Nc3nccs3)ccc21 [Compound 175],> 5000 nM
10,O=C(c1ccc(F)cc1)N1CCc2ccc(S(=O)(=O)Nc3nccs3)cc2C1 [Compound 119],> 5000 nM
11,O=C(COc1ccnc2c(C(F)(F)F)cccc12)N1Cc2ccc(S(=O)(=O)Nc3ncns3)cc2C1 [Compound 122],< 2000 nM
12,O=C(COc1ccc(Cl)cc1)N1CCc2cc(S(=O)(=O)Nc3ncns3)ccc21 [Compound 147],< 2000 nM
13,Cc1ccccc1CNCC(=O)N1CCc2cc(S(=O)(=O)Nc3nccs3)ccc21 [Compound 35],2000 to 5000 nM
14,O=C(COc1cccc(Cl)c1)N1CCCc2cc(S(=O)(=O)Nc3ncns3)ccc21 [Compound 53],2000 to 5000 nM
15,O=S(=O)(Nc1nccs1)c1ccc2c(c1)CCN2CCNc1nc2ccccc2[nH]1 [Compound 66],> 5000 nM
16,O=C(COc1ccnc2c(C(F)(F)F)cccc12)N1CCc2ccc(S(=O)(=O)Nc3nncs3)cc2C1 [Compound 45],> 5000 nM
17,COc1ccc(CC(=O)N2CCc3ccc(S(=O)(=O)Nc4nccs4)cc3C2)cc1 [Compound 168],> 5000 nM
18,O=C(COc1ccccc1)N1CCc2ccc(S(=O)(=O)Nc3nccs3)cc2C1 [Compound 12],> 5000 nM
19,O=C(c1ccc(F)cc1F)N1CCc2ccc(S(=O)(=O)Nc3nccs3)cc2C1 [Compound 73],> 5000 nM
